Results as given in patent publication US9567329B2, “High penetration prodrug compositions of 1H-imidazo[4,5-c]quinolin-4-amines and 1H-imidazo[4,5-c]quinolin-4-amine-related compounds and uses thereof” (Techfields Pharma Co., Ltd, priority 2007, dated 2017).

Key:
[1] = In vitro penetration rate across human skin in modified Franz cells; assay type: in vitro ADME; settings: 3% solution in ethanol/pH 7.4 phosphate buffer (0.2 M) 70/30
Procedure: Penetration rates of HPPs and their parent drugs through human skin were measured in vitro by modified Franz cells. A Franz cell had two chambers, the top sample chamber and the bottom receiving chamber. The human skin tissue (360-400 μm thick) that separated the top and the receiving chambers was isolated from the anterior or posterior thigh areas.
A compound tested (0.5 mL, 3% in a mixture of ethanol and phosphate buffer (0.2M, pH 7.4) (v/v, 70/30)) was added to the sample chamber of a Franz cell. The receiving chamber contains 2 ml of 2% bovine serum albumin in saline which was stirred at 600 rpm. The amount of the tested compound penetrating the skin was determined by high-performance liquid chromatography (HPLC) method.
The lowest detectable apparent flux values in this method was 1 μg/cm^2/h.

[2] = system: herpes simplex virus Type I; assay: Anti-Herpes activity, treated for 5 days, first treatment just after HSV infection; assay type: in vivo; settings: guinea pigs
Procedure: (§1) The evaluation of anti-Herpes activity of these prodrugs was carried out using the method described by Kern, et al. [Antimicrob. Agents Chemother. 14, 817, (1978)].
(§2) In the second experiment, female guinea pigs (n=10) were anesthetized. Herpes simplex virus (Type I or Type II, about 10^5 plaque forming units were used) was applied intravaginally to the guinea pigs using a cotton swab. […] Virus replication was monitored by determining the amount of virus recovered with vaginal swabs taken on day 7 after infection. External lesions were scored daily for ten days using the following scale: 0, no lesion; 1, redness and swelling; 2, a few small vesicles; 3, several large vesicles; 4, large ulcers and necrosis; and 5, paralysis. The percent Lesion Inhibition was calculated as follows: 100−[(Sum of maximum lesion scores of treated group divided by the Sum of the scores of infected control)×100] (Table 6).

[3] = system: herpes simplex virus Type II; assay: as above; assay type: in vivo; settings: guinea pigs
Procedure: as §1, §2

[4] = system: interferon production; assay: Interferon inducing activity in guinea pigs (serum protection of fibroblasts from mengovirus); assay type: in vivo; settings: serum 18 hours after treatment
Procedure: Without being bound by any mechanism, the ability to induce interferon production of the pro-drugs of the invention was evaluated in guinea pigs (n=10). Untreated guinea pigs provided controls.
Each test drug was administered to real back skin of a guinea pig at a specific dose of about 0.5-4.5 mg/kg respectively.
Each treated and control guinea pig was bled 18 hours after drug treatment and its serum was assayed for interferon activity. The serum was diluted and incubated with guinea pig fibroblast cells at 37° C. overnight in 96 well microtiter plates. The incubated cells were then challenged with an inoculum of mengovirus that was sufficient to kill untreated cells in two days. Two days after such challenge, the cells were examined both microscopically and after staining with crystal violet to determine whether the cells remained intact.
Table 4 contains the results of the study with activity/ml indicating the highest dilute on of serum that protected cells from virus challenge. Untreated guinea pigs provided controls.

[5] = Irritative effect or discomfort on skin of nude mice after topical application; assay type: in vivo; settings: 0.1 ml of 3% in pH 7.4 phosphate buffer, back of nude mice, twice per day, 1 week
Procedure: Irritative effect or discomfort in the skin of mice of HPPs of 1H-imidazo[4,5-c]quinolin-4-amines or 1H-imidazo[4,5-c]quinolin-4-amine-related compounds was evaluated during a period of 1 week after the topical application of 0.1 ml of 3% of the respective test drug in pH 7.4 phosphate buffer (0.2 M) to the back of nude mice twice per day.

[6] = system: Human breast cancer cells (BCAP-37); assay: Antitumor activity, breast cancer xenograft, topical treatment from day 1; settings: 50 μl of 3% topically once per day from day 1; after 28 days
Text: Human breast cancer cells (BCAP-37, 4-5 mm^3 of tumor tissue was used in each mouse) were subcutaneous xenografted into nude mice (BALB).

[7] = Conversion of HPPs to parent drugs in human plasma (half life); assay type: in vitro ADME; settings: 37° C.
Procedure: HPPs of 1H-imidazo[4,5-c]quinolin-4-amines or 1H-imidazo[4,5-c]quinolin-4-amine-related compounds converted to the parent 1H-imidazo[4,5-c]quinolin-4-amines or 1H-imidazo[4,5-c]quinolin-4-amine-related compounds quickly in good yield in human plasma.
A HPP of 1H-imidazo[4,5-c]quinolin-4-amines or 1H-imidazo[4,5-c]quinolin-4-amine-related compound (0.05 mg) was dissolved in 0.1 ml of 0.2M pH 7.4 phosphate buffer. 1 ml of human plasma, preheated to 37° C., was added into the mixture. The mixture was kept in a water bath at 37° C., and at every 10 min intervals 0.2 ml of samples were withdrawn and added to 0.4 ml of methanol to precipitate the plasma protein. The samples were centrifuged for 5 min and analyzed by HPLC.

[8] = system: herpes simplex virus Type I; assay: Anti-Herpes activity, treated for 5 days, first treatment 5 days after HSV infection; assay type: in vivo; settings: guinea pigs
Procedure: as §1
(§3) In the third experiment, female guinea pigs (n=10) were anesthetized. The guinea pigs were then infected with herpes simplex virus (type I or Type II, about 10^5 plaque forming units were used) intravaginally using a cotton swab. […] External lesions were scored daily for ten days using the following scale: 0, no lesion; 1, redness and swelling; 2, a few small vesicles; 3, several large vesicles; 4, large ulcers and necrosis; and 5, paralysis. The percent Lesion Inhibition was calculated as follows: 100−[(Sum of maximum lesion scores of treated group divided by the Sum of the scores of infected control)×100] (Table 7).

[9] = system: herpes simplex virus Type II; assay: as above; assay type: in vivo; settings: guinea pigs
Procedure: as §1, §3

[10] = system: herpes simplex virus Type I; assay: Anti-Herpes activity, treated for 3 days before HSV infection; assay type: in vivo; settings: guinea pigs
Procedure: (§4) The evaluation of anti-Herpes activity of these prodrugs was carried out using the method described by Kern, et al. [Antimicrob. Agents Chemother. 14, 817, (1978)]. In each experiment, female guinea pigs (n=10) were anesthetized. […] Virus replication was monitored by determining the amount of virus recovered with vaginal swabs taken on day 7 after infection. […] The percent Lesion Inhibition was calculated as follows: 100-[(Sum of maximum lesion scores of treated group divided by the Sum of the scores of infected control)×100] (Table 5).

[11] = system: herpes simplex virus Type II; assay: as above; assay type: in vivo; settings: guinea pigs
Procedure: as §4

[12] = system: Human breast cancer cells (BCAP-37)
Text: Human breast cancer cells (BCAP-37, 3-4 mm^3 of tumor tissue was used in each mouse) were subcutaneously xenografted into nude mice (BALB).

[13] = system: Human colon cancer cells (LS174J); assay: Antitumor activity, colon cancer xenograft, topical treatment from day 1; settings: 50 μl of 3% topically twice per day from day 1; after 28 days
Text: Human colon cancer cells (LS174J, 4-5 mm^3 of tumor tissue was used in each mouse) were subcutaneously xenografted into nude mice (BALB).

[14] = system: interferon production; assay: Interferon inducing activity in guinea pigs (serum protection of fibroblasts from mengovirus); assay type: in vivo; settings: serum 18 hours after treatment; remark: listed apart in the source
[15] = 0.5 mg/kg once per day for 5 days
[16] = 1.5 mg/kg once per day for 5 days
[17] = 4.5 mg/kg once per day for 5 days
[18] = 0.5 mg/kg once per day for 3 days before HSV infection
[19] = 1.5 mg/kg once per day for 3 days before HSV infection
[20] = 4.5 mg/kg once per day for 3 days before HSV infection
[21] = at day 42, treatment from day 21 (tumors 13±2 mm×12±3 mm), 50 μl of 3% topically once per day

CNCC(=O)Nc1nc2ccccc2c2c1ncn2CC(C)C.Cl [sarcosine 1-isobutyl-1H-imidazo[4,5-c]quinolin-4-amide hydrochloride]
In vitro Penetration Rate of HPPs (apparent flux) [1]: 0.15 mg/cm^2/h
% Lesion inhibition of the HPP, intravaginal, Herpes type I [2, 15]: 57%
% Lesion inhibition of the HPP, transdermal, Herpes type I [2, 15]: 47%
% Lesion inhibition of the HPP, intravaginal, Herpes type I [2, 16]: 87%
% Lesion inhibition of the HPP, transdermal, Herpes type I [2, 16]: 77%
% Lesion inhibition of the HPP, intravaginal, Herpes type I [2, 17]: 95%
% Lesion inhibition of the HPP, transdermal, Herpes type I [2, 17]: 91%
% Lesion inhibition of the HPP, intravaginal, Herpes type II [3, 15]: 56%
% Lesion inhibition of the HPP, transdermal, Herpes type II [3, 15]: 49%
% Lesion inhibition of the HPP, intravaginal, Herpes type II [3, 16]: 90%
% Lesion inhibition of the HPP, transdermal, Herpes type II [3, 16]: 80%
% Lesion inhibition of the HPP, intravaginal, Herpes type II [3, 17]: 96%
% Lesion inhibition of the HPP, transdermal, Herpes type II [3, 17]: 93%
Interferon level of the HPP, transdermal ([4]; 0.5 mg/kg once): 8,676 activity/ml
Interferon level of the HPP, transdermal ([4]; 1.5 mg/kg once): 16,784 activity/ml
Interferon level of the HPP, transdermal ([4]; 4.5 mg/kg once): 57,235 activity/ml
signs of irritative effect or discomfort in the skin [5]: None of any signs of irritative effect or discomfort was observed
Tumor size, Human breast cancer, first dimension [6]: None
tumor incidence, human breast cancer [6]: no tumor was seen
Half life of HPPs in plasma [7]: 27 ± 1 min
% Lesion inhibition of the HPP, intravaginal, Herpes type I [8, 15]: 37%
% Lesion inhibition of the HPP, transdermal, Herpes type I [8, 15]: 37%
% Lesion inhibition of the HPP, intravaginal, Herpes type I [8, 16]: 68%
% Lesion inhibition of the HPP, transdermal, Herpes type I [8, 16]: 57%
% Lesion inhibition of the HPP, intravaginal, Herpes type I [8, 17]: 88%
% Lesion inhibition of the HPP, transdermal, Herpes type I [8, 17]: 89%
% Lesion inhibition of the HPP, intravaginal, Herpes type II [9, 15]: 38%
% Lesion inhibition of the HPP, transdermal, Herpes type II [9, 15]: 38%
% Lesion inhibition of the HPP, intravaginal, Herpes type II [9, 16]: 70%
% Lesion inhibition of the HPP, transdermal, Herpes type II [9, 16]: 58%
% Lesion inhibition of the HPP, intravaginal, Herpes type II [9, 17]: 90%
% Lesion inhibition of the HPP, transdermal, Herpes type II [9, 17]: 88%
% Lesion inhibition of the HPP, intravaginal, Herpes type I [10, 18]: 71%
% Lesion inhibition of the HPP, transdermal, Herpes type I [10, 18]: 45%
% Lesion inhibition of the HPP, intravaginal, Herpes type I [10, 19]: 93%
% Lesion inhibition of the HPP, transdermal, Herpes type I [10, 19]: 72%
% Lesion inhibition of the HPP, intravaginal, Herpes type I [10, 20]: 95%
% Lesion inhibition of the HPP, transdermal, Herpes type I [10, 20]: 91%
% Lesion inhibition of the HPP, intravaginal, Herpes type II [11, 18]: 75%
% Lesion inhibition of the HPP, transdermal, Herpes type II [11, 18]: 51%
% Lesion inhibition of the HPP, intravaginal, Herpes type II [11, 19]: 90%
% Lesion inhibition of the HPP, transdermal, Herpes type II [11, 19]: 73%
% Lesion inhibition of the HPP, intravaginal, Herpes type II [11, 20]: 96%
% Lesion inhibition of the HPP, transdermal, Herpes type II [11, 20]: 90%
tumor size, first dimension [12, 21]: 11±2 mm
tumor size, second dimension [12, 21]: 10±2 mm
death of mice ([12]; up to day 70, 50 μl of 3% topically once per day from day 21): none of mice died at day 70
Tumor size, Human colon cancer, first dimension [13]: None
tumor incidence, human colon cancer [13]: no tumor was seen
Interferon level of the HPP, intravaginal ([14]; 0.5 mg/kg once): 23,647 activity/ml
Interferon level of the HPP, intravaginal ([14]; 1.5 mg/kg once): 56,735 activity/ml
Interferon level of the HPP, intravaginal ([14]; 4.5 mg/kg once): 87,795 activity/ml
